Experimental data reported in ChEMBL document CHEMBL4507329, “Data for DCP probe BTZO-1” (2021).

Key:
[1] = target: Tyrosine-protein kinase ABL1 (Homo sapiens) (UniProt P00519); settings: Compound concentration 1000.0 nM
[2] = target: Activin receptor type-1-like (Homo sapiens) (UniProt P37023); settings: Compound concentration 1000.0 nM
[3] = target: RAC-gamma serine/threonine-protein kinase (Homo sapiens) (UniProt Q9Y243); settings: Compound concentration 1000.0 nM
[4] = target: Ankyrin repeat and protein kinase domain-containing protein 1 (Homo sapiens) (UniProt Q8NFD2); settings: Compound concentration 1000.0 nM
Chain of Ankyrin repeat and protein kinase domain-containing protein 1 (Homo sapiens) (Q8NFD2 whole entry, the tested form may be a part): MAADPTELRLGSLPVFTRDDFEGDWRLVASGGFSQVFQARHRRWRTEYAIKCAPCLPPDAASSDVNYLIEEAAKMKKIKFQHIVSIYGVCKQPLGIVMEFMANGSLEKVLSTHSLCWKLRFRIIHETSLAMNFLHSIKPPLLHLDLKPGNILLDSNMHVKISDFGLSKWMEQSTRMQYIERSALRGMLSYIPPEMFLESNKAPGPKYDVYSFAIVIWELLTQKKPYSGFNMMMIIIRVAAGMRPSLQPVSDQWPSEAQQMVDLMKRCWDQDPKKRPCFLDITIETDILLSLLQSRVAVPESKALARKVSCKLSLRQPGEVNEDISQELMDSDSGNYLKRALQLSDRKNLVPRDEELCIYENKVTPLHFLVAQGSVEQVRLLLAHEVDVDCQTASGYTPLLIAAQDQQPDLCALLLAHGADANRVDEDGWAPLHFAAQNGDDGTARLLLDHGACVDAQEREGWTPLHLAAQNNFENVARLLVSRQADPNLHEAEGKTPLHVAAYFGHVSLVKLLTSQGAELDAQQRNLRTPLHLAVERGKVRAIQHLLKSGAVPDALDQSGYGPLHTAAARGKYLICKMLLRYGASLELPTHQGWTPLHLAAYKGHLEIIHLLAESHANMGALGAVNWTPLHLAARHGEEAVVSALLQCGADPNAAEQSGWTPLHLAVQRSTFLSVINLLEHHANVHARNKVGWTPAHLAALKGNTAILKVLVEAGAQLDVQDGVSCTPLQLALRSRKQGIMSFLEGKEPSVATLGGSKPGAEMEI

[5] = target: Calcium/calmodulin-dependent protein kinase type IV (Homo sapiens) (UniProt Q16566); settings: Compound concentration 1000.0 nM
[6] = target: Peripheral plasma membrane protein CASK (Homo sapiens) (UniProt O14936); settings: Compound concentration 1000.0 nM
[7] = target: Cyclin-dependent kinase 3 (Homo sapiens) (UniProt Q00526); settings: Compound concentration 1000.0 nM
[8] = target: Cyclin-dependent kinase-like 2 (Homo sapiens) (UniProt Q92772); settings: Compound concentration 1000.0 nM
[9] = target: Dual specificity protein kinase CLK4 (Homo sapiens) (UniProt Q9HAZ1); settings: Compound concentration 1000.0 nM
[10] = target: Serine/threonine-protein kinase 17B (Homo sapiens) (UniProt O94768); settings: Compound concentration 1000.0 nM
[11] = system: Epidermal growth factor receptor (Homo sapiens), P00533 [G719S]; settings: Compound concentration 1000.0 nM
[12] = system: Epidermal growth factor receptor (Homo sapiens), P00533 [L858R]; settings: Compound concentration 1000.0 nM
[13] = system: Epidermal growth factor receptor (Homo sapiens), P00533 [L858R,T790M]; settings: Compound concentration 1000.0 nM
[14] = target: Ephrin type-A receptor 2 (Homo sapiens) (UniProt P29317); settings: Compound concentration 1000.0 nM
[15] = target: Receptor tyrosine-protein kinase erbB-3 (Homo sapiens) (UniProt P21860); settings: Compound concentration 1000.0 nM
[16] = target: Mitogen-activated protein kinase 6 (Homo sapiens) (UniProt Q16659); settings: Compound concentration 1000.0 nM
[17] = target: Mitogen-activated protein kinase 4 (Homo sapiens) (UniProt P31152); settings: Compound concentration 1000.0 nM
[18] = target: Mitogen-activated protein kinase 15 (Homo sapiens) (UniProt Q8TD08); settings: Compound concentration 1000.0 nM
[19] = target: Glycogen synthase kinase-3 beta (Homo sapiens) (UniProt P49841); settings: Compound concentration 1000.0 nM
[20] = target: Homeodomain-interacting protein kinase 2 (Homo sapiens) (UniProt Q9H2X6); settings: Compound concentration 1000.0 nM
[21] = target: Hormonally up-regulated neu tumor-associated kinase (Homo sapiens) (UniProt P57058); settings: Compound concentration 1000.0 nM
Chain of Hormonally up-regulated neu tumor-associated kinase (Homo sapiens) (P57058 whole entry): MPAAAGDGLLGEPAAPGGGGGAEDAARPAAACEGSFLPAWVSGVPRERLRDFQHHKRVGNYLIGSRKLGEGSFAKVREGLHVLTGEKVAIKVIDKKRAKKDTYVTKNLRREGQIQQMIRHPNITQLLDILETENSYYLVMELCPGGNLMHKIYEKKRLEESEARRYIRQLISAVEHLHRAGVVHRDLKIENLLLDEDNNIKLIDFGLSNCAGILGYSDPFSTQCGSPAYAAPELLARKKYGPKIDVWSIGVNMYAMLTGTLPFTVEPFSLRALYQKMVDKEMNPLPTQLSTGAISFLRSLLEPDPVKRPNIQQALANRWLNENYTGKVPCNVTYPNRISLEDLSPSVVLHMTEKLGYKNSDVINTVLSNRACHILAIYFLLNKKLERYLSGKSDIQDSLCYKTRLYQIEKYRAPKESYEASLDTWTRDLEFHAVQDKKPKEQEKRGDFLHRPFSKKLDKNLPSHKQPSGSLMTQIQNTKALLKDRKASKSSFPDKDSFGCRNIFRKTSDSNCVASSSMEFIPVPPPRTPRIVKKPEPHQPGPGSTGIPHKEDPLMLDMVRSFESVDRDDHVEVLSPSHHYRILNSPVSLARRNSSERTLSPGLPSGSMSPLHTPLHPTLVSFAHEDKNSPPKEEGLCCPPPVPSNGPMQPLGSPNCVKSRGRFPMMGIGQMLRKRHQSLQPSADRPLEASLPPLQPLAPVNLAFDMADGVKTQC

[22] = target: Dual specificity mitogen-activated protein kinase kinase 3 (Homo sapiens) (UniProt P46734); settings: Compound concentration 1000.0 nM
[23] = system: Hepatocyte growth factor receptor (Homo sapiens), P08581 [Y1235D]; settings: Compound concentration 1000.0 nM
[24] = target: Myosin light chain kinase, smooth muscle (Homo sapiens) (UniProt Q15746); settings: Compound concentration 1000.0 nM
[25] = target: Serine/threonine-protein kinase 38 (Homo sapiens) (UniProt Q15208); settings: Compound concentration 1000.0 nM
[26] = target: Serine/threonine-protein kinase Nek11 (Homo sapiens) (UniProt Q8NG66); settings: Compound concentration 1000.0 nM
[27] = target: Serine/threonine-protein kinase Nek9 (Homo sapiens) (UniProt Q8TD19); settings: Compound concentration 1000.0 nM
[28] = target: Serine/threonine-protein kinase NLK (Homo sapiens) (UniProt Q9UBE8); settings: Compound concentration 1000.0 nM
[29] = target: Calcium-dependent protein kinase 1 (Plasmodium falciparum) (UniProt P62344); settings: Compound concentration 1000.0 nM
[30] = system: Phosphatidylinositol 4,5-bisphosphate 3-kinase catalytic subunit alpha isoform (Homo sapiens), P42336 [I800L]; settings: Compound concentration 1000.0 nM
Chain of Phosphatidylinositol 4,5-bisphosphate 3-kinase catalytic subunit alpha isoform (Homo sapiens), P42336 [I800L] (P42336 whole entry I800L, canonical isoform): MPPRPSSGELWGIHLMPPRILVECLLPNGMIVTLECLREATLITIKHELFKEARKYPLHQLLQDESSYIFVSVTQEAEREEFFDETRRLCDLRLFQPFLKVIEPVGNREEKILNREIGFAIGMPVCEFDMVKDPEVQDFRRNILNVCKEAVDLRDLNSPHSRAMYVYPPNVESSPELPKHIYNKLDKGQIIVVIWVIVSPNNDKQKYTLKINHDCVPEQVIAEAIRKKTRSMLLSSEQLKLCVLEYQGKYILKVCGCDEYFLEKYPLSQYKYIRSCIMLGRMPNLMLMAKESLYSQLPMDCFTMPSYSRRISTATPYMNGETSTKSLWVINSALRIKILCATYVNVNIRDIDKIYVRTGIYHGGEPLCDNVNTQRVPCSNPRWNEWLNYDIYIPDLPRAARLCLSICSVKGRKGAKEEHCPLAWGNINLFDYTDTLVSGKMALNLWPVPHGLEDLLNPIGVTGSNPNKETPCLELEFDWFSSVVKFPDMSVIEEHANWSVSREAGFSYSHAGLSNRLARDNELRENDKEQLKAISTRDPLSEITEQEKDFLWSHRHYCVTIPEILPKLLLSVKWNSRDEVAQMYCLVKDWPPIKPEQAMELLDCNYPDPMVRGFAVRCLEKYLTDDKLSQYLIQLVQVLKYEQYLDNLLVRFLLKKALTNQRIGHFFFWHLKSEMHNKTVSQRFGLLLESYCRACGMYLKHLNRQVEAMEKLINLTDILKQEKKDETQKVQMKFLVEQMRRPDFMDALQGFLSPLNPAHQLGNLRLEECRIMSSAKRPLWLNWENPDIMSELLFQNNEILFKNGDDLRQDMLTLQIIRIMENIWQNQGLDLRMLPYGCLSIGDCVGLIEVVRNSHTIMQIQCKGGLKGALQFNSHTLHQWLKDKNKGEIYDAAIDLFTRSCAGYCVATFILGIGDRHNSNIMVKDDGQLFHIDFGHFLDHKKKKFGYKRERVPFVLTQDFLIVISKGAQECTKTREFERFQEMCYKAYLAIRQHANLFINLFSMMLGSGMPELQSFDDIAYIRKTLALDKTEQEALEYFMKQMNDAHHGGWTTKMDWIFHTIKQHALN

[31] = system: Phosphatidylinositol 4,5-bisphosphate 3-kinase catalytic subunit alpha isoform (Homo sapiens), P42336 [M1043I]; settings: Compound concentration 1000.0 nM
Chain of Phosphatidylinositol 4,5-bisphosphate 3-kinase catalytic subunit alpha isoform (Homo sapiens), P42336 [M1043I] (P42336 whole entry M1043I, canonical isoform): as the sequence (P42336 whole entry I800L, canonical isoform) above, with L800I, M1043I counted along it

[32] = target: Phosphatidylinositol 4,5-bisphosphate 3-kinase catalytic subunit beta isoform (Homo sapiens) (UniProt P42338); settings: Compound concentration 1000.0 nM
Chain of Phosphatidylinositol 4,5-bisphosphate 3-kinase catalytic subunit beta isoform (Homo sapiens) (P42338 whole entry, looked up, canonical isoform): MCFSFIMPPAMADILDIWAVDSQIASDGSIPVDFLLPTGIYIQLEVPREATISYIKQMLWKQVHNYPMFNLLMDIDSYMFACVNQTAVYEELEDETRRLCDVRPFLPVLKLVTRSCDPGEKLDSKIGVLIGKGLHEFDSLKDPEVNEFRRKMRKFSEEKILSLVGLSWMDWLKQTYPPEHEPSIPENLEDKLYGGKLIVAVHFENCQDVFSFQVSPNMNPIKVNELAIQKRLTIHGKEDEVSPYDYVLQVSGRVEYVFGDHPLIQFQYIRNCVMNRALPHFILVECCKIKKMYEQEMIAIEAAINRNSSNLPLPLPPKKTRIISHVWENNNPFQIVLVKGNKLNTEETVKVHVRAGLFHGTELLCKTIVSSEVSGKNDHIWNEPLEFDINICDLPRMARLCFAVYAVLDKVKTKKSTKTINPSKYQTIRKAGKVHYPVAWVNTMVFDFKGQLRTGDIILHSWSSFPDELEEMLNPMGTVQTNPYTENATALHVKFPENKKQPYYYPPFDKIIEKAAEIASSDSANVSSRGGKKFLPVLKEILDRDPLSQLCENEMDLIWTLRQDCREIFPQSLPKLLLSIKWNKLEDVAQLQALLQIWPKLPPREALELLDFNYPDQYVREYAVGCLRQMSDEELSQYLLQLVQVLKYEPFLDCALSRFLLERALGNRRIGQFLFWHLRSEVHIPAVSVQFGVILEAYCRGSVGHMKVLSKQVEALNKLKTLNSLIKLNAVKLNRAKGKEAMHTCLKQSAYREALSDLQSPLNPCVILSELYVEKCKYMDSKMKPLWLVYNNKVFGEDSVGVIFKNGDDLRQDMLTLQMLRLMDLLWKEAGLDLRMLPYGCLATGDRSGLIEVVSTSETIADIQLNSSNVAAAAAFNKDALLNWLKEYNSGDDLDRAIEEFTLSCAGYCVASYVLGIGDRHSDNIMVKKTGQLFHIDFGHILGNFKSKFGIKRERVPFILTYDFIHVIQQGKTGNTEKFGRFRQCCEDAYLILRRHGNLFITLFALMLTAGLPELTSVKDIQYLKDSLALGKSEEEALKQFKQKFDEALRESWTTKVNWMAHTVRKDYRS

[33] = target: Phosphatidylinositol 5-phosphate 4-kinase type-2 gamma (Homo sapiens) (UniProt Q8TBX8); settings: Compound concentration 1000.0 nM
[34] = target: Serine/threonine-protein kinase D1 (Homo sapiens) (UniProt Q15139); settings: Compound concentration 1000.0 nM
[35] = system: Proto-oncogene tyrosine-protein kinase receptor Ret (Homo sapiens), P07949 [M918T]; settings: Compound concentration 1000.0 nM
[36] = target: Proto-oncogene tyrosine-protein kinase ROS (Homo sapiens) (UniProt P08922); settings: Compound concentration 1000.0 nM
[37] = target: Ribosomal protein S6 kinase alpha-4 (Homo sapiens) (UniProt O75676); settings: Compound concentration 1000.0 nM
[38] = target: Ribosomal protein S6 kinase alpha-3 (Homo sapiens) (UniProt P51812); settings: Compound concentration 1000.0 nM
[39] = target: Proto-oncogene tyrosine-protein kinase Src (Homo sapiens) (UniProt P12931); settings: Compound concentration 1000.0 nM
[40] = target: Tyrosine-protein kinase SYK (Homo sapiens) (UniProt P43405); settings: Compound concentration 1000.0 nM
[41] = target: Serine/threonine-protein kinase TAO3 (Homo sapiens) (UniProt Q9H2K8); settings: Compound concentration 1000.0 nM
[42] = target: Serine/threonine-protein kinase tousled-like 1 (Homo sapiens) (UniProt Q9UKI8); settings: Compound concentration 1000.0 nM
Chain of Serine/threonine-protein kinase tousled-like 1 (Homo sapiens) (Q9UKI8 whole entry): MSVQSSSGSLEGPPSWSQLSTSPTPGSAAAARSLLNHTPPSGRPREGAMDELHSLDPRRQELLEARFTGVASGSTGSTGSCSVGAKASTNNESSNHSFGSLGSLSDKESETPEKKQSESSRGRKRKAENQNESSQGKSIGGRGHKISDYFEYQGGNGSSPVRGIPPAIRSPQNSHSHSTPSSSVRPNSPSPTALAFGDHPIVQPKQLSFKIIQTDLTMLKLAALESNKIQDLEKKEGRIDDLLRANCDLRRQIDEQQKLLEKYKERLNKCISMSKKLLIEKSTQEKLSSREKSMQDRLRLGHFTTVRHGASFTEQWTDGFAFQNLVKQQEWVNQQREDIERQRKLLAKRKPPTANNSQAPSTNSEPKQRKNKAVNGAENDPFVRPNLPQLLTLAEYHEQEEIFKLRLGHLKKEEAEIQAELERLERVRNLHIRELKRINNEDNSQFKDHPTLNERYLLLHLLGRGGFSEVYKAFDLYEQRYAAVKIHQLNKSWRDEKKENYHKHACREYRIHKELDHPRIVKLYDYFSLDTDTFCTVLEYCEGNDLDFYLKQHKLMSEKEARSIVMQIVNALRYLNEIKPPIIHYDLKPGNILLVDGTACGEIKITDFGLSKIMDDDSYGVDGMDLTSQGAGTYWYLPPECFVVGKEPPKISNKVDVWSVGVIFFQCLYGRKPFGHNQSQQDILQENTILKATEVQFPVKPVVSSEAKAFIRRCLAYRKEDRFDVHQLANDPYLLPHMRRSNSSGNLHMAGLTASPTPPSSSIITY

[43] = target: Tyrosine-protein kinase receptor TYRO3 (Homo sapiens) (UniProt Q06418); settings: Compound concentration 1000.0 nM
[44] = target: Wee1-like protein kinase 2 (Homo sapiens) (UniProt P0C1S8); settings: Compound concentration 1000.0 nM
[45] = target: Histamine H2 receptor (Homo sapiens) (UniProt P25021); settings: Compound concentration 10.0 uM

Chain of Activin receptor type-1-like (Homo sapiens) (P37023 whole entry): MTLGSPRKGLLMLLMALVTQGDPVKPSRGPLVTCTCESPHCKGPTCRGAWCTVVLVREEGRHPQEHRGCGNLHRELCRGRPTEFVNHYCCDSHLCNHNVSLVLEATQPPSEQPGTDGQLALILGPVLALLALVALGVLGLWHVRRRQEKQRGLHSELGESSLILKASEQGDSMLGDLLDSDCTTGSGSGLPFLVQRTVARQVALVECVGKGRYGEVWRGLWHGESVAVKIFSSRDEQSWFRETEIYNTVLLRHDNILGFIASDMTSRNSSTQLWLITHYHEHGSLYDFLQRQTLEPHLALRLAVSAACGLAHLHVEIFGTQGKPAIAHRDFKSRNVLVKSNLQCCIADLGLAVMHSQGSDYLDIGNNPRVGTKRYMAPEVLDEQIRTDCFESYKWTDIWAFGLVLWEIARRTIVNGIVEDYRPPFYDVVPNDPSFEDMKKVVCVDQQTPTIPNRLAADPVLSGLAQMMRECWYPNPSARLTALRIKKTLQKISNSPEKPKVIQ

O=c1nc(-c2ccccn2)sc2ccccc12 [BTZO-1]
inactive: residual activity [1] 93% | residual activity [2] 99% | residual activity [3] 100% | residual activity [4] 100% | residual activity [5] 97% | residual activity [6] 84% | residual activity [7] 99% | residual activity [8] 76% | residual activity [9] 90% | residual activity [10] 80% | residual activity [11] 71% | residual activity [12] 81% | residual activity [13] 100% | residual activity [14] 100% | residual activity [15] 83% | residual activity [16] 73% | residual activity [17] 100% | residual activity [18] 100% | residual activity [19] 74% | residual activity [20] 76% | residual activity [21] 81% | residual activity [22] 75% | residual activity [23] 100% | residual activity [24] 67% | residual activity [25] 76% | residual activity [26] 100% | residual activity [27] 96% | residual activity [28] 100% | residual activity [29] 77% | residual activity [30] 84% | residual activity [31] 100% | residual activity [32] 100% | residual activity [33] 98% | residual activity [34] 100% | residual activity [35] 81% | residual activity [36] 100% | residual activity [37] 100% | residual activity [38] 71% | residual activity [39] 92% | residual activity [40] 97% | residual activity [41] 73% | residual activity [42] 93% | residual activity [43] 80% | residual activity [44] 100% | inhibition [45] 24.4%

O=C1NC(c2ccccn2)Sc2ccccc21 (stereo not given) [BTZO-4]
inactive: residual activity [1] 69% | residual activity [2] 70% | residual activity [3] 100% | residual activity [4] 77% | residual activity [5] 72% | residual activity [6] 71% | residual activity [7] 100% | residual activity [8] 76% | residual activity [9] 97% | residual activity [10] 73% | residual activity [11] 82% | residual activity [12] 86% | residual activity [13] 100% | residual activity [14] 100% | residual activity [15] 88% | residual activity [16] 72% | residual activity [17] 86% | residual activity [18] 100% | residual activity [19] 65% | residual activity [20] 80% | residual activity [21] 80% | residual activity [22] 81% | residual activity [23] 96% | residual activity [24] 77% | residual activity [25] 76% | residual activity [26] 95% | residual activity [27] 75% | residual activity [28] 100% | residual activity [29] 57% | residual activity [30] 80% | residual activity [31] 74% | residual activity [32] 100% | residual activity [33] 100% | residual activity [34] 100% | residual activity [35] 64% | residual activity [36] 95% | residual activity [37] 100% | residual activity [38] 72% | residual activity [39] 85% | residual activity [40] 75% | residual activity [41] 77% | residual activity [42] 94% | residual activity [43] 76% | residual activity [44] 85% | inhibition [45] 24.8%
